Tests used:
[1] = molecular target: T1, mA3AR (Mus musculus, UniProt Q61618); experiment: Mouse A3AR binding
T1 sequence (Q61618 1-319): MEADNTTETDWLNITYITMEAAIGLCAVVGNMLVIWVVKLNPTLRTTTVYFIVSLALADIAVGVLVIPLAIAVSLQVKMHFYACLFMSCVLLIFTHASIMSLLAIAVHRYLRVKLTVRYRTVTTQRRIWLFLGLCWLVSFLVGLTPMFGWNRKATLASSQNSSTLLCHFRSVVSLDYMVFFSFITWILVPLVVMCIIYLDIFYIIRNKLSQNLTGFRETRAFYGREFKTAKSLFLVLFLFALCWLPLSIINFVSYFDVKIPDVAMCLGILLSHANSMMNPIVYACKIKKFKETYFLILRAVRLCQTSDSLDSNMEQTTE

[2] = molecular target: T2, DOR (Homo sapiens, UniProt P41143); experiment: Radioligand binding at DOR
T2 sequence (P41143 whole entry): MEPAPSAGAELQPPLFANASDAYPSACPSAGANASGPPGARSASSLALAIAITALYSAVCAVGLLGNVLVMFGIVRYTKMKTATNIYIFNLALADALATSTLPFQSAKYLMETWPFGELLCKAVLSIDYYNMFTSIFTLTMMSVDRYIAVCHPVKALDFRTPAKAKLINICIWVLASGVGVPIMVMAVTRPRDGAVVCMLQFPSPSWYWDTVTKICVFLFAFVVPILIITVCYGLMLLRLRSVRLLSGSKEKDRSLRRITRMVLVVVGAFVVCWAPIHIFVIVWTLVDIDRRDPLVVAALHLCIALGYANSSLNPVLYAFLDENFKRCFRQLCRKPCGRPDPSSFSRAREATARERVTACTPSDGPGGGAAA

[3] = molecular target: hNOP (Homo sapiens, UniProt P41146); experiment: Radioligand binding at NOP
hNOP, sequence (P41146 whole entry): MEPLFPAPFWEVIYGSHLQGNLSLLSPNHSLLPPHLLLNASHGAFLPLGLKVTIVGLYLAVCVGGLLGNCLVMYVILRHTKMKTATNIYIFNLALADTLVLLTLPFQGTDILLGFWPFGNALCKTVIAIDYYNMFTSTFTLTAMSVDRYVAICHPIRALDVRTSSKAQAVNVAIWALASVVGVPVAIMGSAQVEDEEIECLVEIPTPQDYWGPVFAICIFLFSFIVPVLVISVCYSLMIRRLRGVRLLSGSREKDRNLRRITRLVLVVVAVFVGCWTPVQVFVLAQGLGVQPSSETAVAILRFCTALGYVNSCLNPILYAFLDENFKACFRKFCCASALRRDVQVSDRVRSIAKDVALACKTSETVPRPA

[4] = molecular target: hA2AAR (Homo sapiens, UniProt P29274); experiment: hA2AAR binding; conditions: for inhibition at 10 µM: read-out: binding inhibition at hA2AAR (% at 10 μM)
hA2AAR, sequence (P29274 whole entry): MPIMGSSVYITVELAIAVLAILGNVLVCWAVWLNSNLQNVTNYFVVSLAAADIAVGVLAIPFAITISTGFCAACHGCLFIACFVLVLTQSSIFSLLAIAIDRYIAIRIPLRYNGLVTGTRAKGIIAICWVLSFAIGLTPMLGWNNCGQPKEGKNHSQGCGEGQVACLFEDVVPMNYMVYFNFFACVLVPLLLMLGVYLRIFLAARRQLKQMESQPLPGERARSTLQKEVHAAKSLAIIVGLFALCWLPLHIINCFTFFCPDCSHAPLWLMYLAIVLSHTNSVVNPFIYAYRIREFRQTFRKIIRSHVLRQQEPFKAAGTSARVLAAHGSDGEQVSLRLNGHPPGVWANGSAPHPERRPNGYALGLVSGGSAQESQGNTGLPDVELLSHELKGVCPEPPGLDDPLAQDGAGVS

[5] = molecular target: hDAT (Homo sapiens, UniProt Q01959); experiment: Radioligand binding at DAT; conditions: 10 μM; [3H]WIN35428; negative = enhanced radioligand binding
hDAT, sequence (Q01959 whole entry): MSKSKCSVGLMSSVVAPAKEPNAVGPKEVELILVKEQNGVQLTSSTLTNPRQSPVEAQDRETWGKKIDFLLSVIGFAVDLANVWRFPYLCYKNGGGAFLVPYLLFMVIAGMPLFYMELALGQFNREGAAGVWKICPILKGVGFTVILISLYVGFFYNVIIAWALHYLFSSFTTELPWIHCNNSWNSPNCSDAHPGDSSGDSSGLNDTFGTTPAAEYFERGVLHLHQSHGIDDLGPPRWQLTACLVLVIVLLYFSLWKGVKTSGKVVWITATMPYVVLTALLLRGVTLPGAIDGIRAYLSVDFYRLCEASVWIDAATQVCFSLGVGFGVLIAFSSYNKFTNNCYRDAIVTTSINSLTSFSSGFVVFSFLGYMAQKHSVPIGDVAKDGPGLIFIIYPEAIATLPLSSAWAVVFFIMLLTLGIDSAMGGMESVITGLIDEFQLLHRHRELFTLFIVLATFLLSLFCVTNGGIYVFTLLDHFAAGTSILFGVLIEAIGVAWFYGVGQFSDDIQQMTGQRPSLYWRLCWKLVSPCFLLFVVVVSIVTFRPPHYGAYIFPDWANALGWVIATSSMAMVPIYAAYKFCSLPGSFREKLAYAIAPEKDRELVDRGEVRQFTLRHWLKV

[6] = molecular target: rat kidney TSPO (Rattus norvegicus, UniProt P16257); experiment: Radioligand binding at TSPO; conditions: for Ki: TSPO, rat TSPO, [3H]PK11195
rat kidney TSPO, sequence (P16257 whole entry): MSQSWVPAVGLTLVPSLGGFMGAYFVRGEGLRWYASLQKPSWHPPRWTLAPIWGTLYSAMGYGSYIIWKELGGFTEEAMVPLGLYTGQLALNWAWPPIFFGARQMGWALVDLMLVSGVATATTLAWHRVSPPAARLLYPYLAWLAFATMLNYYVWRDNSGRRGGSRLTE

[7] = molecular target: T3, rat σ2 receptor (Rattus norvegicus, UniProt Q5U3Y7); experiment: PDSP binding, σ2 receptor
T3 sequence (Q5U3Y7 1-176): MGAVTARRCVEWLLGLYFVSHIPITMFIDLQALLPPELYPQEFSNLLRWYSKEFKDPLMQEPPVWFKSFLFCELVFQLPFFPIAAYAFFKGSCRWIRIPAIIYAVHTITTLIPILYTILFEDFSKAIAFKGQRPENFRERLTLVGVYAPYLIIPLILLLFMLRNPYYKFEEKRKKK

[8] = molecular target: T4, mA1AR (Mus musculus, UniProt Q60612); experiment: mA1AR binding; conditions: read-out: mA1AR binding, % inhibition at 10 μM
T4 sequence (Q60612 1-326): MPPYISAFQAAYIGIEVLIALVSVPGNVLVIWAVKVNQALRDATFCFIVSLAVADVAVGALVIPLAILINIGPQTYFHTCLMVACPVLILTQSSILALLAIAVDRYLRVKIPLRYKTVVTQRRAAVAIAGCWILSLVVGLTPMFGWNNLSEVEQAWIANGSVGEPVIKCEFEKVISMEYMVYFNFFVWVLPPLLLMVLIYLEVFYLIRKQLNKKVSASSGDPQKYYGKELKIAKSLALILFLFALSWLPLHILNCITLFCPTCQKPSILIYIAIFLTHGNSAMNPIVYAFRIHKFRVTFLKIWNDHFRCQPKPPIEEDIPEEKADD

[9] = molecular target: T5, KOR (Homo sapiens, UniProt P41145); experiment: biochemical; type: binding; conditions: for Ki: KOR
T5 sequence (P41145 whole entry): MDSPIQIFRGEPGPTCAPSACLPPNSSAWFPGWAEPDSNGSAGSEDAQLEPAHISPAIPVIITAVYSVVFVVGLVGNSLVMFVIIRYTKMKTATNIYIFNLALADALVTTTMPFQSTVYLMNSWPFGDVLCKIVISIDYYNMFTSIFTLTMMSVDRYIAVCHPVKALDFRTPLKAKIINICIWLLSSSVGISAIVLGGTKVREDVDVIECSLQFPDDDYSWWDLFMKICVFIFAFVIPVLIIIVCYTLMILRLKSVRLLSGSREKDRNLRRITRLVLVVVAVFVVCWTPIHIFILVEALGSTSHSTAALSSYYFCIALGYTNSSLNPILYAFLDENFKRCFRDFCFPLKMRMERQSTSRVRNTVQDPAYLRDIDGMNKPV

[10] = molecular target: mA2AAR (Mus musculus, UniProt Q60613); experiment: mA2AAR binding; conditions: read-out: mA2AAR binding, % inhibition at 10 μM
mA2AAR, sequence (Q60613 whole entry): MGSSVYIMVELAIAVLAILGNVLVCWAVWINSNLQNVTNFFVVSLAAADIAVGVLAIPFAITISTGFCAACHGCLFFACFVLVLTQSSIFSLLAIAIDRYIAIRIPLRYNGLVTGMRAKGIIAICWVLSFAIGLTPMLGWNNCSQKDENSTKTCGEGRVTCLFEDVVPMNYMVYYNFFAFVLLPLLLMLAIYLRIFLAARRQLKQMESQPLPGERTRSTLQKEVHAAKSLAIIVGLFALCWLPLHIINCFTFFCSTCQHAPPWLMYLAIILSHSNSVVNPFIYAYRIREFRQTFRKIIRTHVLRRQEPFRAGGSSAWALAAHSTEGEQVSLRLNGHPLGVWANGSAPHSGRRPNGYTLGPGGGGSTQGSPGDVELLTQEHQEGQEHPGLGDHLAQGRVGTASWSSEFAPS

[11] = molecular target: T6, MOR (Homo sapiens, UniProt P35372); experiment: biochemical; type: binding; conditions: for MOR, inhibition of radioligand binding at 10 μM (class): Table 2
T6 sequence (P35372 whole entry): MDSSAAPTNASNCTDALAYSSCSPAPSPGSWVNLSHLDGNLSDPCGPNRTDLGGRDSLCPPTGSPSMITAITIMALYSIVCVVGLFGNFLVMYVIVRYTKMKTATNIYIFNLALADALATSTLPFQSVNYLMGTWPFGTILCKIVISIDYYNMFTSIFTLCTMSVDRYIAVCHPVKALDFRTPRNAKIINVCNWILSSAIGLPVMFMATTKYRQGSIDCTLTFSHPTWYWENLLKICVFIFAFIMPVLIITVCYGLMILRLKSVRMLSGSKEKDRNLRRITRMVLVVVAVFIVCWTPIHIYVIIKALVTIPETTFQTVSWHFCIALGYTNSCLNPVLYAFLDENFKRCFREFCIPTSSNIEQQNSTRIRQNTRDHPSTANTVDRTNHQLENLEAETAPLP

[12] = molecular target: T7, hA1AR (Homo sapiens, UniProt P30542); experiment: hA1AR binding; conditions: read-out: binding inhibition at hA1AR (% at 10 μM)
T7 sequence (P30542 1-326): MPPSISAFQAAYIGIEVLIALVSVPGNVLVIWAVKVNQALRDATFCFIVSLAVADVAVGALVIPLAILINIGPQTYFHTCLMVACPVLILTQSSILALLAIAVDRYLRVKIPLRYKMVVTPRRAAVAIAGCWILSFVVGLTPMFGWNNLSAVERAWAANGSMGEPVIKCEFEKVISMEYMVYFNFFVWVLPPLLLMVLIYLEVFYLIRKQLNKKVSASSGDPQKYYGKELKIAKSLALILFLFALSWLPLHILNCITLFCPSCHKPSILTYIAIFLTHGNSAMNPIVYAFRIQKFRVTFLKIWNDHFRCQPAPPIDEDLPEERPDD

[13] = molecular target: T8, hA3AR (Homo sapiens, UniProt P0DMS8); experiment: A3AR binding
T8 sequence (P0DMS8 1-318): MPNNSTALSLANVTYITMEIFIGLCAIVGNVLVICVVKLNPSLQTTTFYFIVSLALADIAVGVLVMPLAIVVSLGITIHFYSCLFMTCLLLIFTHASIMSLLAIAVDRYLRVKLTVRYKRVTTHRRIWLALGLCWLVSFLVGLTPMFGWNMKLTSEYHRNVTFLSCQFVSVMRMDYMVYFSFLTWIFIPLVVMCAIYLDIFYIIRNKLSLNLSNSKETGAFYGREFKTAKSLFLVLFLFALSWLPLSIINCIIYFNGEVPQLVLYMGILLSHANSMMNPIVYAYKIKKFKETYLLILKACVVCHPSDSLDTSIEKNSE

[14] = molecular target: T9, 5HT2C serotonin receptor (Homo sapiens, UniProt P28335); experiment: PDSP off-target binding, 5HT2C
T9 sequence (P28335 33-458): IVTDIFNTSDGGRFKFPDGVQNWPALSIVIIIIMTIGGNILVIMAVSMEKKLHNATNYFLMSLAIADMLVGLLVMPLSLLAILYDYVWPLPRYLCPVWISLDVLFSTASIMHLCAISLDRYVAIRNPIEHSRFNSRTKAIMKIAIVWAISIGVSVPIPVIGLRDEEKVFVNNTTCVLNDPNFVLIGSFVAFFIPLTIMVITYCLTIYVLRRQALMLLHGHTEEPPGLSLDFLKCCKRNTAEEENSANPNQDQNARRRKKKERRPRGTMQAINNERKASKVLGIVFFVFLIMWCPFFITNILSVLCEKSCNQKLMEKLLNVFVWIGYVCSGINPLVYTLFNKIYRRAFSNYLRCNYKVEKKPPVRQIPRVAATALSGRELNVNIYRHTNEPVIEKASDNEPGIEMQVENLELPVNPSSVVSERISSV

[15] = molecular target: T2, DOR; experiment: β-arrestin-recruitment TANGO assay at DOR; type: cell-based; conditions: 10 μM
[16] = molecular target: T5, KOR; experiment: β-arrestin-recruitment TANGO assay at KOR; type: cell-based; conditions: 10 μM; vs naloxone 121 = 100% inhibition; agonist 109 (3 nM)
[17] = molecular target: T6, MOR; experiment: β-arrestin-recruitment TANGO assay at MOR; type: cell-based; conditions: 10 μM
[18] = molecular target: T5, KOR; type: cell-based; conditions: 1 μM 98
[19] = molecular target: T5, KOR; experiment: cell-based; type: cell-based
[20] = [3H]U69593, mean ± SEM, N = 2–4

Structure (SMILES) | Ki [1] [nM] | DAT, inhibition, % of control at 10 μM [5] | Ki [6] [nM] | inhibition at 10 µM [8] [%] | Ki [9, 20] [nM] | inhibition at 10 µM [10] [%] | Ki [13] [nM] | DOR, inhibition of radioligand binding at 10 μM (class) ([2]; Table 2) | MOR, inhibition of radioligand binding at 10 μM (class) [11] | DOR, inhibition of radioligand binding at 10 μM (class) ([2]; Table 1) | further results
CCOC(=O)[C@@]12C[C@@H]1[C@@H](n1cnc3c(NC)cc(C#Cc4ccc(Cl)s4)nc31)[C@H](O)[C@@H]2O [compound 26] | 828 | <10% | 3810 ± 100 | 54 | 806 ± 263 | 5 | 29.4 ± 13.8 | ^c (30–50% inhibition of radioligand binding at 10 μM) | ^c (30–50% inhibition of radioligand binding at 10 μM) | – | inhibition at 10 µM [4]: 16%; Ki [7]: 1760 nM; inhibition at 10 µM [12]: 39%
CNC(=O)[C@@]12C[C@@H]1[C@@H](n1cnc3c(NC)nc(C#Cc4ccccc4Cl)nc31)[C@H](O)[C@@H]2O [compound 13] | 110 | –484% | – | – | – | – | – | – | – | ^e (30–50% inhibition of radioligand binding at 10 μM) | TSPO, inhibition of radioligand binding at 10 μM (class) ([6]; Table 1): ^e (30–50% inhibition of radioligand binding at 10 μM)
CNc1nc(C#Cc2ccc(Cl)s2)nc2c1ncn2[C@H]1[C@H](O)[C@H](O)[C@]2(C(=O)NCCN)C[C@H]12 [compound 21] | – | –136% | > 10000 | – | – | – | 158 ± 8 | – | – | ^f (<30% inhibition of radioligand binding at 10 μM) | Ki [9]: 2790 nM; Ki [14]: 510 nM
CNC(=O)[C@@]12C[C@@H]1[C@@H](n1cnc3c(NCCC(F)(F)F)nc(C#Cc4ccc(Cl)s4)nc31)[C@H](O)[C@@H]2O [compound 19] | 71 | 15% | 1300 ± 150 | – | – | – | 3.7 ± 1 | – | – | ^e (30–50% inhibition of radioligand binding at 10 μM) | inhibition at 10 µM [4]: 21%; inhibition at 10 µM [12]: 46%
CNC(=O)[C@@]12C[C@@H]1[C@@H](n1cnc3c(NCCCO)nc(C#Cc4ccc(Cl)s4)nc31)[C@H](O)[C@@H]2O [compound 20] | 105 | –107 ± 4% | 6160 ± 50 | – | – | – | 2.04 ± 1.46 | – | – | ^e (30–50% inhibition of radioligand binding at 10 μM) | –

The next lines start with results.

Ki [1] [nM] | DAT, inhibition, % of control at 10 μM [5] | Ki [6] [nM] | inhibition at 10 µM [8] [%] | Ki [9, 20] [nM] | inhibition at 10 µM [10] [%] | Ki [13] [nM] | Structure (SMILES) | DOR, inhibition of radioligand binding at 10 μM (class) ([2]; Table 2) | MOR, inhibition of radioligand binding at 10 μM (class) [11] | DOR, inhibition of radioligand binding at 10 μM (class) ([2]; Table 1) | further results
299 | 37% | 1640 ± 160 | – | – | – | – | O[C@@H]1[C@H](O)[C@@H]2C[C@@H]2[C@H]1n1cnc2c(NCc3cccc(Cl)c3)nc(C#Cc3ccccc3)nc21 [compound 47] | – | – | – | Ki [2]: 8000 ± 1000 nM; Ki [3]: > 10000 nM; Ki [4]: 670 nM; Ki [7]: 2730 nM
891 | <20% | 4050 ± 740 | – | 629 ± 183 | – | 7.81 ± 2.4 | CNc1nc(C#Cc2ccc(Cl)s2)nc2c1ncn2[C@H]1[C@H](O)[C@H](O)[C@]2(C(=O)OCc3ccccc3)C[C@H]12 [compound 35] | ^d (<30% inhibition of radioligand binding at 10 μM) | ^c (30–50% inhibition of radioligand binding at 10 μM) | – | DOR Antag (%) ([15]; vs naloxone 121 = 100% inhibition): 14.1%; DOR Ag (%) ([15]; vs standard agonist = 100%): –1.9%; KOR Antag (%) [16]: 112.9%; MOR Antag (%) ([17]; vs naloxone 121 = 100% inhibition, agonist 99 (300 nM)): 82.1%; MOR Ag (%) ([17]; vs standard agonist = 100%): 3.1%
– | −58% | – | – | 1120 ± 220 | – | 85.6 ± 12 | CNc1nc(C#Cc2ccccc2)nc2c1ccn2[C@H]1[C@H](O)[C@H](O)[C@@H]2C[C@@H]21 [compound 54, (1R,2R,3S,4R,5S)-4-(4-(Methylamino)-2-(phenylethynyl)-7H-pyrrolo[2,3-d]pyrimidin-7-yl)bicyclo[3.1.0]hexane-2,3-diol] | – | – | – | DOR, inhibition of radioligand binding at 10 μM (class) ([2]; Table 5): ^d (30–50% inhibition of radioligand binding at 10 μM); inhibition of agonist 98 in βarrestin2 assay [18]: did not inhibit; Ki [11]: 2670 ± 280 nM; TSPO, inhibition of radioligand binding at 10 μM (class) ([6]; Table 5): ^e (<30% inhibition of radioligand binding at 10 μM); inhibition of agonist 98 in cAMP assay ([19]; 100 nM 98): did not inhibit; inhibition at 30 µM ([19]; CHO, read-out: inhibition of cAMP accumulation, % inhibition at 30 μM): 16%; reduction of hA3AR binding affinity by 7-deaza modification ([13]; 28 vs 24, 54 vs 49, 55 vs 51): 16 fold
– | –426% | 1160 ± 560 | 53 | 437 ± 167 | 13 | – | CCCOC(=O)[C@@]12C[C@@H]1[C@@H](n1cnc3c(NC)nc(C#Cc4ccc(Cl)s4)nc31)[C@H](O)[C@@H]2O [compound 30] | ^d (<30% inhibition of radioligand binding at 10 μM) | ^d (<30% inhibition of radioligand binding at 10 μM) | – | –
– | –220% | – | 62 | – | 12 | – | CNc1nc(C#Cc2ccc(Cl)s2)nc2c1ncn2[C@@H]1O[C@H](C(=O)OC)[C@@H](O)[C@H]1O [compound 46] | – | – | – | KOR, inhibition of radioligand binding at 10 μM (class) ([9]; Table 3, 10 μM): ^d (30–50% inhibition of radioligand binding at 10 μM)

— article PMC6210068 (ACS Omega, 2018)
